# Entries after “also recorded” stand apart in the source; their conditions may differ.
# Experiments:
# MMP-1 mRNA = MMP-1 mRNA accumulation in synovial fibroblasts (real time PCR); assay type: cell-based, human
# Protocol: Methods: The effect of RXR antagonists on the activity of synovial fibroblasts, dependent on their state of activation, i.e. modified by a concomitant stimulation by the inflammatory cytokine Interleukin-1β (IL-1β), was determined. Furthermore, it was determined whether this was accompanied by a modulation in the accumulation of the mRNA encoding catabolic enzyme matrix metalloproteinase-1 (MMP-1), responsible for degradation of human cartilage and consequently joint destruction in man. Adherent synovial fluid cells taken from a patient with RA were used after 5 passages in an in vitro assay for cartilage destruction. The cells incubated in flasks coated with 0.1% (0.1 g/100 ml) human cartilage powder were fixed using Matrigel® (BD Biosciences, Becton, Dickinson & Co., Boston, Mass., USA). The release of sulphated glycosaminoglycan (sGAG) into the culture medium was monitored by a commercial colorimetric test according to a method described by S. Björnsson, see Anal. Biochem. 256, 229-237 (1998) using an alcian blue dot plot analysis, and the accumulation of mRNA encoding MMP-1 was quantified by real time PCR (TaqMan® (Roche Diagnostics, Basle, Switzerland)). […] This was conducted in the presence or absence of IL-1β (100 pg/ml).
# synovial fibroblasts = assay: In vitro cartilage degradation by RA synovial fibroblasts (sGAG release); assay type: cell-based, human; conditions: for Release of sGAG: 14 days
# Protocol: Methods: The effect of RXR antagonists on the activity of synovial fibroblasts, dependent on their state of activation, i.e. modified by a concomitant stimulation by the inflammatory cytokine Interleukin-1β (IL-1β), was determined. Furthermore, it was determined whether this was accompanied by a modulation in the accumulation of the mRNA encoding catabolic enzyme matrix metalloproteinase-1 (MMP-1), responsible for degradation of human cartilage and consequently joint destruction in man. Adherent synovial fluid cells taken from a patient with RA were used after 5 passages in an in vitro assay for cartilage destruction. The cells incubated in flasks coated with 0.1% (0.1 g/100 ml) human cartilage powder were fixed using Matrigel® (BD Biosciences, Becton, Dickinson & Co., Boston, Mass., USA). The release of sulphated glycosaminoglycan (sGAG) into the culture medium was monitored by a commercial colorimetric test according to a method described by S. Björnsson, see Anal. Biochem. 256, 229-237 (1998) using an alcian blue dot plot analysis, and the accumulation of mRNA encoding MMP-1 was quantified by real time PCR (TaqMan® (Roche Diagnostics, Basle, Switzerland)).
# The retinoid agonists all-trans retinoic acid and 9-cis retinoic acid, both physiological metabolites of vitamin A, as well as the RXR antagonist compound A, diluted first in ethanol, and then diluted with vehicle or medium to the desired dose/concentration were tested in a time course (0-35 days for the in vitro assay, 0-48 hours for MMP-1 mRNA, see tables 7, 8 and 10) and dose-dependent (10^−7 to 10^−9 M, see tables 5, 6 and 9). This was conducted in the presence or absence of IL-1β (100 pg/ml).
# MMP-9 = MMP-9 protein expression in human PBMC (zymography and ELISA); assay type: cell-based; conditions: for MMP-9 Inhibition of expression: vs vehicle control (0%)
# Excerpt: For details on the method see: (A) Effect of RXR antagonists on expression of MMP-9 protein in human peripheral blood mononuclear cells (PBMC) in vitro, Leppert D et al, J Immunol 1995, 154:4379-4389; (B) Leppert D et al, Ann Neurol 1996, 40: 846-852; (C) Leppert D et al, Brain 1998, 121, 2327-2334; (D) Lindberg R et al, Brain 2001, 124: 1743-1753; (E) Gilli F et al, Brain 2004, 127: 1-10, which are incorporated by reference herein, especially with regard to the method.
# Method: Fresh human peripheral blood mononuclear cells (PBMC) were prepared and expanded by stimulation with PHA as described in Leppert D et al, Ann Neurol 1996; 40: 846-852. 1×10^6 cells were pretreated with the RXR antagonist compound A in concentrations of 10^−6 M, 10^−7 M and 10^−8 M for 18 hours. Vehicle was used as control.
# In two different experiments, after pretreatment with compound A, PBMCs were stimulated for 24 hours with Interleukin-2 (IL-2) 50 U/ml in one group, or not stimulated with IL-2 in another group.
# The effect of the mentioned concentrations of compound A was compared with vehicle controls in the IL-2 stimulated and in the non IL-2 stimulated cultures of PBMC. The expression of MMP-9 protein was determined by analysis with zymography and ELISA, see especially references (A) under “Zymographic analysis of conditioned medium (CM)” and (C) under “ELISA (enzyme linked immunosorbent assay) for MMP-9” mentioned above, respectively.
# [1] = 10^−7 M, after 24 hours, vehicle control 1
# [2] = 10^−8 M, 12 hours, control 1.13
# [3] = 10^−8 M, 48 hours, control 1.09
# [4] = 10^−8 M, after 24 hours, vehicle control 1
# [5] = 10^−9 M, after 24 hours, vehicle control 1
# [6] = absence of IL-1β, 10^−7 M, vehicle control 48
# [7] = absence of IL-1β, 10^−8 M, vehicle control 48
# [8] = absence of IL-1β, 10^−8 M, day 7, control 23
# [9] = absence of IL-1β, 10^−8 M, day 14, control 48
# [10] = absence of IL-1β, 10^−8 M, day 21, control 84
# [11] = absence of IL-1β, 10^−8 M, day 28, control 112
# [12] = absence of IL-1β, 10^−8 M, day 35, control 117
# [13] = absence of IL-1β, 10^−9 M, vehicle control 48
# [14] = presence of 100 pg/ml IL-1β, 10^−7 M, vehicle control 173
# [15] = presence of 100 pg/ml IL-1β, 10^−8 M, vehicle control 173
# [16] = presence of 100 pg/ml IL-1β, 10^−8 M, day 7, control 86
# [17] = presence of 100 pg/ml IL-1β, 10^−8 M, day 14, control 173
# [18] = presence of 100 pg/ml IL-1β, 10^−8 M, day 21, control 212
# [19] = presence of 100 pg/ml IL-1β, 10^−8 M, day 28, control 249
# [20] = presence of 100 pg/ml IL-1β, 10^−8 M, day 35, control 271
# [21] = presence of 100 pg/ml IL-1β, 10^−9 M, vehicle control 173
SMILES,MMP-1 mRNA (fold increase of baseline value) (MMP-1 mRNA; [1]) [relative units],"MMP-1 mRNA (fold increase of baseline value) (MMP-1 mRNA; 10^−8 M, 0 hours) [relative units]","MMP-1 mRNA (fold increase of baseline value) (MMP-1 mRNA; 10^−8 M, 2 hours) [relative units]","MMP-1 mRNA (fold increase of baseline value) (MMP-1 mRNA; 10^−8 M, 6 hours) [relative units]",MMP-1 mRNA (fold increase of baseline value) (MMP-1 mRNA; [2]) [relative units],"MMP-1 mRNA (fold increase of baseline value) (MMP-1 mRNA; 10^−8 M, 24 hours) [relative units]",MMP-1 mRNA (fold increase of baseline value) (MMP-1 mRNA; [3]) [relative units],MMP-1 mRNA (fold increase of baseline value) (MMP-1 mRNA; [4]) [relative units],MMP-1 mRNA (fold increase of baseline value) (MMP-1 mRNA; [5]) [relative units],Release of sGAG (synovial fibroblasts; [6]) [µg/mL],Release of sGAG (synovial fibroblasts; [7]) [µg/mL],Cumulative sGAG release (synovial fibroblasts; [8]) [µg/mL],Cumulative sGAG release (synovial fibroblasts; [9]) [µg/mL],Cumulative sGAG release (synovial fibroblasts; [10]) [µg/mL],Cumulative sGAG release (synovial fibroblasts; [11]) [µg/mL],Cumulative sGAG release (synovial fibroblasts; [12]) [µg/mL],Release of sGAG (synovial fibroblasts; [13]) [µg/mL],"Effect on cartilage destruction in vitro (basal activity of synovial fibroblasts) (synovial fibroblasts; absence of IL-1β, in words)",Release of sGAG (synovial fibroblasts; [14]) [µg/mL],Release of sGAG (synovial fibroblasts; [15]) [µg/mL],other results
"CCCCOc1c(\C(C)=C/C=C/C(C)=C/C(=O)O)cc(C(C)(C)C)cc1C(C)(C)C [compound A, (2E,4E,6Z)-7-[2-butoxy-3,5-bis(1,1-dimethylethyl)phenyl]-3-methyl-2,4,6-octatrienoic acid]",0.68,1,1.13,0.81,1.12,0.87,0.83,1.12,1.05,39,57,44,57,57,39,34,46,no effect,41,89,"Cumulative sGAG release (synovial fibroblasts; [16]): 67 µg/mL; Cumulative sGAG release (synovial fibroblasts; [17]): 89 µg/mL; Cumulative sGAG release (synovial fibroblasts; [18]): 89 µg/mL; Cumulative sGAG release (synovial fibroblasts; [19]): 173 µg/mL; Cumulative sGAG release (synovial fibroblasts; [20]): 56 µg/mL; Release of sGAG (synovial fibroblasts; [21]): 144 µg/mL; Effect on IL-1β dependent cartilage destruction (sGAG) (synovial fibroblasts; presence of IL-1β, in words): markedly inhibited; Effect on production, release and/or activity (expression) of MMP-9 (MMP-9; PBMC, IL-2 stimulated and not stimulated, ELISA and zymography, in words): very strong suppressive effect; also recorded: marked suppressive or inhibitory effect; MMP-9 Protein (total protein in the supernatant) (MMP-9; PBMCs not stimulated with IL-2, 10^−6 M, 18 h pretreatment): 33 ng/mL; MMP-9 Inhibition of expression (MMP-9; PBMCs not stimulated with IL-2, 10^−6 M): 53%; MMP-9 Protein (total protein in the supernatant) (MMP-9; PBMCs not stimulated with IL-2, 10^−7 M, 18 h pretreatment): 43 ng/mL; MMP-9 Inhibition of expression (MMP-9; PBMCs not stimulated with IL-2, 10^−7 M): 39%; MMP-9 Protein (total protein in the supernatant) (MMP-9; PBMCs not stimulated with IL-2, 10^−8 M, 18 h pretreatment): 51 ng/mL; MMP-9 Inhibition of expression (MMP-9; PBMCs not stimulated with IL-2, 10^−8 M): 28%; MMP-9 Protein (total protein in the supernatant) (MMP-9; PBMCs stimulated with IL-2 50 U/ml 24 h, 10^−6 M): 29 ng/mL; MMP-9 Protein (total protein in the supernatant) (MMP-9; PBMCs stimulated with IL-2 50 U/ml 24 h, 10^−7 M): 41 ng/mL; MMP-9 Protein (total protein in the supernatant) (MMP-9; PBMCs stimulated with IL-2 50 U/ml 24 h, 10^−8 M): 40 ng/mL; MMP-9 Inhibition of expression (MMP-9; PBMCs stimulated with IL-2, 10^−6 M): 52%; MMP-9 Inhibition of expression (MMP-9; PBMCs stimulated with IL-2, 10^−7 M): 33%; MMP-9 Inhibition of expression (MMP-9; PBMCs stimulated with IL-2, 10^−8 M): 34%"
"CC1=C(/C=C/C(C)=C\C=C\C(C)=C\C(=O)O)C(C)(C)CCC1 [9-cis RA, 9-cis retinoic acid, reference compound]",2.60,1,0.98,1.31,3.39,3.79,1.47,3.39,1.54,189,107,44,107,206,253,292,64,increased cartilage destruction in vitro in a dose-dependent manner,221,189,"Effect on cartilage destruction in vitro, time course (synovial fibroblasts; presence and absence of IL-1β, in words): markedly increased cartilage destruction; Cumulative sGAG release (synovial fibroblasts; [16]): 68 µg/mL; Cumulative sGAG release (synovial fibroblasts; [17]): 189 µg/mL; Cumulative sGAG release (synovial fibroblasts; [18]): 330 µg/mL; Cumulative sGAG release (synovial fibroblasts; [19]): 407 µg/mL; Cumulative sGAG release (synovial fibroblasts; [20]): 441 µg/mL; Release of sGAG (synovial fibroblasts; [21]): 204 µg/mL"

# Reference: patent publication US20090016991A1, “Rxr Antagonist Treatment Against Multiple Sclerosis” (priority 2004, published 2009)
